Assay results: US7652047B2, “Phenylamino isothiazole carboxamidines as MEK inhibitors” (Ardea Biosciences, Inc., priority 2005, dated 2010)

The compounds below were run against T1, MEK1^CA (human GST-MEK1, constitutively active, Ser218Asp and Ser222Asp) (Homo sapiens, UniProt Q02750, S218D/S222D) (assay: MEK1 enzymatic activity assay (MEK1^CA / ERK2 / MBP, [γ-33P]ATP incorporation)). Settings: Table 1, compounds of formula I; read-out: Avg IC50.
T1 construct: GST; made in house; host or cells: Escherichia coli
Assay type: biochemical
Description: Materials and preparation of reagents: Human GST-MEK1 and the constitutively active allele GST-MEK1^CA (harboring the mutations Ser218Asp and Ser222Asp) were subcloned into the […] expression vector pGEM4Z (Promega, Madison, Wis.) from the wild type human MEK1 cDNA. GST-MEK1^CA was expressed in Escherichia coli and partially purified using Glutathione Sepharose 4B affinity resin (Amersham Pharmacia Biotech, Piscataway, N.J.). The ERK2 allele was subcloned from MAPK2/Erk2 cDNA (wild type) in pUSEamp (Upstate Biotechnology, Inc., Waltham, Mass.) into the vector pET21a (Novagen, Madison, Wis.) resulting in an N-terminal histidine-tagged mouse ERK2 allele. […] Myelin basic protein (MBP) was purchased from Gibco BRL (Rockville, Md.). EasyTides adenosine 5′-triphosphate (ATP) ([γ-^33P]) (NEN Perkin Elmer, Wellesley, Mass.) was the source of radiolabel for all kinase reactions. Activated Raf-1 (truncated) and activated MAPKinase 2/ERK2 were purchased from Upstate, Inc. (Lake Placid, N.Y.). 4-20% Criterion Precast gels were purchased from Bio-Rad (Hercules, Calif.).
A typical 25-microliter assay contained 0.002 nanomoles MEK1^CA, 0.02 nanomoles ERK2, 0.25 nanomoles MBP, 0.25 nanomoles unlabeled ATP, and 0.1 μCi [γ^33P] ATP. The screening assay essentially comprised four additions. Five μl of diluted compound were dispensed to 96-well assay plates. Ten μl of 2.5× enzyme cocktail (MEK1^CA and ERK2 only) were then added to each well followed by a pre-incubation for 30 minutes at ambient temperature. […] Finally, 100 μl of 10% trichloroacetic acid (TCA) were added and incubated for 30 minutes at room temperature to halt the reaction and precipitate radiolabeled protein products. Reaction products were harvested on glass fiber 96 well filter plates prewetted with water and 1% pyrophosphate. The filter plate was then washed 5 times with water. Water was displaced by absolute ethanol and the plate was allowed to air dry for 30 minutes at room temperature. A back seal was applied manually and 40 μl of scintillation cocktail were dispensed to each well. A top seal was applied and the plate was counted in the TopCount for two seconds per well.

T1 sequence (Q02750 whole entry S218D/S222D): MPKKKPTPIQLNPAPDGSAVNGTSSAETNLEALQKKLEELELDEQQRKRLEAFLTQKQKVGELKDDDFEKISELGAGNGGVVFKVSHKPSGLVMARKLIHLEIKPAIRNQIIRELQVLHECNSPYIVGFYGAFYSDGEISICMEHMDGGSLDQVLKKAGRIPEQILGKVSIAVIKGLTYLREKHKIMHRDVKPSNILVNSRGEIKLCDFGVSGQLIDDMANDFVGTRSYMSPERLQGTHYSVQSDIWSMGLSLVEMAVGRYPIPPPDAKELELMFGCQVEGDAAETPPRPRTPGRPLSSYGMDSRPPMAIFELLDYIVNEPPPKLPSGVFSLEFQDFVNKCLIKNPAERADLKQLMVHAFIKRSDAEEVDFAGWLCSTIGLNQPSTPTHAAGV

| Structure (SMILES) | IC50 [nM] |
| --- | --- |
| Cc1cccc(Nc2snc(O)c2C(=N)NCC2CCCCC2)c1 [compound 81] | > 500 |
| N=C(NCc1cccc2ccccc12)c1c(O)nsc1Nc1ccccc1 [compound 87] | > 500 |
| N/C(=N\CC1CCCCC1)c1c(O)nsc1Nc1ccccc1C(=O)NCC1CCCCC1 [compound 88] | > 500 |
| N=C(NCC1CCCCC1)c1c(O)nsc1Nc1ccc([N+](=O)[O-])cc1O [compound 89] | > 500 |
| N=C(NCC1CCCCC1)c1c(O)nsc1NC1CCCCC1 [compound 90] | > 500 |
| N=C(NCC1CCCCC1)c1c(O)nsc1NC12CC3CC(CC(C3)C1)C2 [compound 92] | > 500 |
| N=C(NCC1CCCCC1)c1c(O)nsc1Nc1ccccc1 [compound 93] | > 500 |
| N=C(NCC1CCCCC1)c1c(O)nsc1Nc1ccc(OC(F)F)cc1 [compound 95] | > 500 |
| N=C(NCC1CCCCC1)c1c(O)nsc1Nc1cccc(Cl)c1Cl [compound 96] | > 500 |
| N=C(NCC1CCCCC1)c1c(O)nsc1Nc1ccc(C(F)(F)F)cc1Cl [compound 98] | > 500 |
| COC(=O)c1ccccc1Nc1snc(O)c1C(N)=NCC1CCCCC1 [compound 99] | > 500 |
| N=C(NCc1cccc2ccccc12)c1c(O)nsc1Nc1cccc(Cl)c1Cl [compound 105] | > 500 |
| Cc1ccc2cc(Nc3snc(O)c3C(=N)NCC3CCCCC3)ccc2n1 [compound 106] | > 500 |
| Cc1cc(Nc2snc(O)c2C(=N)NCC2CCCCC2)c2ccccc2n1 [compound 107] | > 500 |
| N=C(NCC1CCCCC1)c1c(O)nsc1NCc1ccc(C(F)(F)F)cc1 [compound 108] | > 500 |
| N=C(NCC1CCCCC1)c1c(O)nsc1Nc1ccc2c(c1)Cc1ccccc1-2 [compound 111] | > 500 |
| COCCCNc1snc(O)c1C(=N)NCCOc1ccccc1 [compound 112] | > 500 |
| N=C(NCCOc1ccccc1)c1c(O)nsc1NCC1CCCO1 (stereo not drawn) [compound 113] | > 500 |
| N=C(NCCc1ccc(O)cc1)c1c(O)nsc1NCCc1ccc(O)cc1 [compound 114] | > 500 |

| Structure (SMILES) | IC50 [nM] |
| --- | --- |
| COc1ccc(CNC(=N)c2c(O)nsc2NCc2ccc(OC)cc2)cc1 [compound 115] | > 500 |
| N=C(NCC1CCCCC1)c1c(O)nsc1NC1CCc2ccccc21 (stereo not drawn) [compound 116] | > 500 |
| CC(C)Nc1snc(O)c1C(=N)NCC1CCCCC1 [compound 117] | > 500 |
| CC(Nc1snc(O)c1C(=N)NCC1CCCCC1)c1ccccc1 (stereo not drawn) [compound 118] | > 500 |
| N=C(NCC1CCCCC1)c1c(O)nsc1NCC1CC1 [compound 119] | > 500 |
| N=C(NCC1CCCCC1)c1c(O)nsc1NCCc1ccccc1 [compound 120] | > 500 |
| CCCCCNc1snc(O)c1C(=N)NCC1CCCCC1 [compound 121] | > 500 |
| N=C(NCC1CCCCC1)c1c(O)nsc1Nc1ccc(N2CCCCC2)cc1 [compound 123] | > 500 |
| N=C(NCCCO)c1c(O)nsc1NCC1CCCCC1 [compound 125] | > 500 |
| N=C(NCC1CCCCC1)c1c(O)nsc1Nc1ccc(Cl)nc1 [compound 126] | > 500 |
| COc1cc2c(cc1Nc1snc(O)c1C(=N)NCC1CCCCC1)oc1ccccc12 [compound 131] | > 500 |
| N=C(NCC1CCCCC1)c1c(O)nsc1Nc1ccc(N2CCOCC2)nc1 [compound 132] | > 500 |
| N=C(NCC1CCCCC1)c1c(O)nsc1Nc1ccc(/C=C/c2ccccc2)cc1 [compound 133] | > 500 |
| Cc1ccc(Oc2ccc(Nc3snc(O)c3C(=N)NCC3CCCCC3)cn2)cn1 [compound 134] | > 500 |
| Oc1nsc(Nc2ccc(Oc3ccccc3)cc2)c1-c1nnn[nH]1 [compound 136] | > 500 |
| N=C(NCC1CCCCC1)c1c(O)nsc1Nc1ccc(Oc2cncnc2)cc1 [compound 137] | > 500 |
| CC(=O)Nc1ccc(Oc2ccc(Nc3snc(O)c3C(=N)NCC(O)CO)cc2)cc1 (stereo not drawn) [compound 145] | > 500 |
| N=C(NCCO)c1c(O)nsc1Nc1ccc(Cc2ccccc2)cc1 [compound 146] | > 500 |
| CN1CCCC1CCNC(=N)c1c(O)nsc1Nc1ccc(Oc2ccccc2)cc1 (stereo not drawn) [compound 148] | > 500 |

Further lines, results first:

| IC50 [nM] | Structure (SMILES) |
| --- | --- |
| > 500 | CCCC1CCC(c2ccc(Nc3snc(O)c3C(=N)NCC3CCCCC3)cc2)CC1 (stereo not drawn) [compound 58] |
| > 500 | COc1ccc(Nc2snc(O)c2C(=N)NCC2CCCCC2)cc1 [compound 60] |
| 100 to 500 | N=C(NCC1CCCCC1)c1c(O)nsc1Nc1ccc(OCc2ccccc2)cc1 [compound 61] |
| > 500 | COc1ccc(-c2ccccc2)cc1Nc1snc(O)c1C(=N)NCC1CCCCC1 [compound 62] |
| 100 to 500 | CCC[C@H]1CC[C@H](c2ccc(Nc3s[nH]c(=O)c3C(N)=NCC(O)CO)cc2)CC1 (stereo partly drawn) [compound 63] |
| > 500 | N=C(NCC(O)CO)c1c(O)nsc1Nc1ccc(CO)cc1 (stereo not drawn) [compound 64] |
| > 500 | N=C(NCC1CCCCC1)c1c(O)nsc1Nc1cc(C(F)(F)F)cc(C(F)(F)F)c1 [compound 66] |
| > 500 | N=C(NCC(O)CO)c1c(O)nsc1Nc1cc(C(F)(F)F)cc(C(F)(F)F)c1 (stereo not drawn) [compound 67] |
| > 500 | N=C(NCc1cccc2ccccc12)c1c(O)nsc1Nc1cc(C(F)(F)F)cc(C(F)(F)F)c1 [compound 68] |
| > 500 | N=C(NCC(O)CO)c1c(O)nsc1Nc1ccccc1F (stereo not drawn) [compound 69] |
| 100 to 500 | CC(C)c1ccc(Nc2snc(O)c2C(N)=NCC(O)CO)cc1 (stereo not drawn) [compound 70] |
| > 500 | N#Cc1cccc(Nc2snc(O)c2C(N)=NCC2CCCCC2)c1 [compound 71] |
| 100 to 500 | N=C(NCC(O)CO)c1c(O)nsc1Nc1cccc(Br)c1 (stereo not drawn) [compound 73] |
| 100 to 500 | N=C(NCC(O)CO)c1c(O)nsc1Nc1cccc(Cl)c1 (stereo not drawn) [compound 75] |
| 1 to 100 | COc1ccc(Nc2snc(O)c2C(=N)NCC2CCCCC2)cn1 [compound 77] |
| > 500 | N=C(NCC(O)O)c1c(O)nsc1Nc1ccc([N+](=O)[O-])cc1 [compound 78] |
| > 500 | CC(C)c1ccc(Nc2snc(O)c2C(N)=NCC2CCCCC2)cc1 [compound 80] |
| 100 to 500 | N=C(NCC1CCCCC1)c1c(O)nsc1Nc1cccc([N+](=O)[O-])c1 [compound 82] |
| 100 to 500 | N=C(NCC1CCCCC1)c1c(O)nsc1Nc1cccc(Oc2ccccc2)c1 [compound 83] |
| 100 to 500 | N=C(NCC1CCCCC1)c1c(O)nsc1Nc1ccc(Sc2ccc([N+](=O)[O-])cc2)cc1 [compound 84] |

| IC50 [nM] | Structure (SMILES) |
| --- | --- |
| 100 to 500 | CCCCc1ccc(Nc2snc(O)c2C(=N)NCC2CCCCC2)cc1 [compound 94] |
| 1 to 100 | N=C(NCC1CCCCC1)c1c(O)nsc1Nc1ccc(Sc2ccccc2)cc1 [compound 100] |
| 100 to 500 | N=C(NCC(O)CO)c1c(O)nsc1Nc1ccc(Cl)cc1 (stereo not drawn) [compound 101] |
| 100 to 500 | N=C(NCC1CCCCC1)c1c(O)nsc1Nc1ccc(Oc2ccccc2)nc1 [compound 103] |
| 100 to 500 | N=C(NCC1CCCCC1)c1c(O)nsc1Nc1ccc(C(=O)c2ccccc2)cc1 [compound 104] |
| 1 to 100 | Cc1ccc(Oc2ccc(Nc3snc(O)c3C(=N)NCC3CCCCC3)cc2)cc1 [compound 109] |
| 100 to 500 | N=C(N)c1c(O)nsc1Nc1ccc(Oc2ccccc2)cc1 [compound 110] |
| 100 to 500 | Cc1ccc(Oc2ccc(Nc3snc(O)c3C(=N)NCC3CCCCC3)cc2)cn1 [compound 124] |
| 100 to 500 | N=C(NCC1CCCCC1)c1c(O)nsc1Nc1ccc(Cc2ccccc2)cc1 [compound 127] |
| 100 to 500 | N=C(NCC1CCCCC1)c1c(O)nsc1Nc1ccc(/N=N/c2ccccc2)cc1 [compound 128] |
| 100 to 500 | N=C(NCC(O)CO)c1c(O)nsc1Nc1ccc(Cc2ccccc2)cc1 (stereo not drawn) [compound 129] |
| 1 to 100 | N=C(NO)c1c(O)nsc1Nc1ccc(Oc2ccccc2)cc1 [compound 130] |
| 100 to 500 | N=C(c1c(O)nsc1Nc1ccc(Oc2ccccc2)cc1)N(O)Cc1ccccc1 [compound 138] |
| 100 to 500 | CN(O)C(=N)c1c(O)nsc1Nc1ccc(Oc2ccccc2)cc1 [compound 139] |
| 1 to 100 | N=C(NCC1CCCCC1)c1c(O)nsc1Nc1ccc(Oc2ccc(Cl)cc2)cc1 [compound 140] |
| 100 to 500 | COc1ccc(Oc2ccc(Nc3snc(O)c3C(=N)NCC3CCCCC3)cc2)cc1 [compound 141] |
| 1 to 100 | N=C(NCC1CCCCC1)c1c(O)nsc1Nc1ccc(Oc2ccc(F)cc2)cc1 [compound 142] |
| 1 to 100 | CC(C)(CO)CNC(=N)c1c(O)nsc1Nc1ccc(Oc2ccccc2)cc1 [compound 143] |
| 1 to 100 | CC(C)N(O)C(=N)c1c(O)nsc1Nc1ccc(Oc2ccccc2)cc1 [compound 144] |
| 100 to 500 | CN(C)CCNC(=N)c1c(O)nsc1Nc1ccc(Oc2ccccc2)cc1 [compound 147] |
